Test results from patent US10988523B2, “Modified lipidated Relaxin B chain peptides and their therapeutic use” (Sanofi, priority 2018, dated 2021).
*1 amine or outer side, *2 acyl side, *3 side chain or, on linkers, in order; H or OH if unused. Where a SMILES comes first, the peptide text is derived from it. Side-chain parts run from the residue outwards. [ ]: non-standard residue; d: D form. The star is where a group is joined. X13 = CCCCCCCCCCCCCCCC(=O)N[C@@H](CCC(=O)N[C@@H](CCC(=O)N[C@@H](CCC(=O)NCCCC[C@H](NC(=O)COCC(=O)NCCCOCCOCCOCCCN*)C(N)=O)C(=O)O)C(=O)O)C(=O)O; X10 = CCCCCCCCCCCCCCCC(=O)N[C@@H](CCC(=O)N[C@@H](CCC(=O)N[C@@H](CCC(=O)NCCCOCCOCCOCCCNC(=O)CCC(=O)NCCCOCCOCCOCCCN*)C(=O)O)C(=O)O)C(=O)O; Docosanoyl = CCCCCCCCCCCCCCCCCCCCCC(=O)*; Arachidoyl = CCCCCCCCCCCCCCCCCCCC(=O)*; γGlu = O=C(O)[C@H](CCC(=O)[*:2])N[*:1]; Pentadecanoyl = CCCCCCCCCCCCCCC(=O)*; Myristoyl = CCCCCCCCCCCCCC(=O)*; Suc = O=C(CCC(=O)[*:2])[*:1]; αMeK = C[C@](N)(CCCCN)C(=O)O; Nle = CCCC[C@H](N)C(=O)O; AEEA = NCCOCCOCC(=O)O; Aib = CC(C)(N)C(=O)O

Target: T1, RXFP1 (Homo sapiens, UniProt Q9HBX9)
T1 construct: OVCAR5 cells expressing endogenous RXFP1; endogenous in cells; host or cells: OVCAR5 cells
T1 sequence (Q9HBX9 1-757): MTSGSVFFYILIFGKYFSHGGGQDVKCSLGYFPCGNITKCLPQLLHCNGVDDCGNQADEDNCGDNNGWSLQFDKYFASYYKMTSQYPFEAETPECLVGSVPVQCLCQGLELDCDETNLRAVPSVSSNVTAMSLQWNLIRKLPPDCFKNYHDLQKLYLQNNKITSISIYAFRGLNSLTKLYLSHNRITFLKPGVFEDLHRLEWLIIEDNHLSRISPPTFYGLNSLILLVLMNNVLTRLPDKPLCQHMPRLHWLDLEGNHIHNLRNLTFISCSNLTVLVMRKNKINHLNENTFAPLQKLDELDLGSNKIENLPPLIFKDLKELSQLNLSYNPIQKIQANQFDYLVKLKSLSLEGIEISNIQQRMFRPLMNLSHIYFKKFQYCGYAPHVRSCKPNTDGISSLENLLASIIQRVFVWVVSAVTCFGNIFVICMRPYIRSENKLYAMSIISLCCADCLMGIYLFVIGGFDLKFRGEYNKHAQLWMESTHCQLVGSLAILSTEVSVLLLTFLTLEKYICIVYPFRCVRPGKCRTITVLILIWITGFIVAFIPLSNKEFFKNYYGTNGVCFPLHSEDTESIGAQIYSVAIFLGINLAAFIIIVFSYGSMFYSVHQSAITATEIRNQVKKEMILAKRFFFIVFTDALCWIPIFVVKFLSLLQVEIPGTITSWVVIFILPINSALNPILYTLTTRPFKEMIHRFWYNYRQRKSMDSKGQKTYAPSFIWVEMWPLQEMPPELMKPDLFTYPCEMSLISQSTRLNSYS
Experiment: OVCAR5 cAMP assay (HTRF), RXFP1 agonist activity
Format: cell-based
Details: for EC50: OVCAR5 cells, cAMP HTRF, read-out: EC50 (nM), OVCAR 5 cells (cAMP); for Emax: OVCAR-5, maximal cAMP relative to H2-relaxin maximum (100%), read-out: EMax, OVCAR 5 cells (cAMP)
How it was run: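 cAMP accumulation readout: after 1 mM IBMX for 40 min, endogenous-RXFP1 OVCAR5 cells got rising peptide concentrations without FCS, 30 min, 37° C, then lysis with HTRF cAMP reagents. Nonlinear regression gave EC50; Emax expressed relative to H2-relaxin maximum, same occasion.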

Row | Structure (SMILES) | EC50 [nM] | Emax [%]
1 | CCCCCCCCCCCCCCCC(=O)N[C@@H](CCC(=O)N[C@@H](CCC(=O)N[C@@H](CCC(=O)NCCCOCCOCCOCCCNC(=O)CCC(=O)NCCCOCCOCCOCCCNC(=O)CCC(=O)NCCCC[C@H](NC(=O)[C@H](CCCCNC(C)=O)NC(=O)[C@H](CCCCN)NC(=O)[C@H](CCCNC(=N)N)NC(=O)C(C)(C)NC(=O)[C@H](CO)NC(=O)[C@H](Cc1c[nH]c2ccccc12)NC(=O)[C@@H](NC(=O)[C@H](CO)NC(=O)[C@H](CCCC)NC(=O)CNC(=O)[C@H](CCC(=O)O)NC(=O)C(C)(C)NC(=O)C(C)(C)NC(=O)[C@@H](NC(=O)[C@H](CCCCNC(C)=O)NC(=O)[C@H](C)NC(=O)[C@H](CCCNC(=N)N)NC(=O)[C@@H](NC(=O)[C@H](CCCCN)NC(=O)[C@H](CCC(=O)O)NC(=O)[C@H](CCCNC(=N)N)NC(=O)CNC(=O)[C@H](CCC(=O)O)NC(=O)[C@H](CC(C)C)NC(C)=O)C(C)C)[C@@H](C)CC)[C@@H](C)O)C(N)=O)C(=O)O)C(=O)O)C(=O)O [compound 166] (Ac-LEGREKVRAK(Ac)I[Aib][Aib]EG[Nle]STWS[Aib]RKK(Ac)K([Suc-X10])-NH2) | 0.26 | 92
2 | CCCCCCCCCCCCCCC(=O)N[C@@H](CCC(=O)N[C@@H](CCC(=O)N[C@@H](CCC(=O)N[C@@H](CCC(=O)NCCCC[C@H](NC(=O)COCCOCCNC(=O)COCCOCCNC(=O)COCCOCCNC(=O)COCCOCCNC(=O)[C@H](CCCCNC(C)=O)NC(=O)[C@H](C)NC(=O)[C@H](CCCNC(=N)N)NC(=O)[C@](C)(CCCCN)NC(=O)[C@H](CO)NC(=O)[C@H](Cc1ccccc1)NC(=O)[C@@H](NC(=O)[C@H](CO)NC(=O)[C@H](CCCC)NC(=O)CNC(=O)[C@H](CCC(=O)O)NC(=O)C(C)(C)NC(=O)C(C)(C)NC(=O)[C@@H](NC(=O)[C@H](CCCCNC(C)=O)NC(=O)[C@H](C)NC(=O)[C@H](CCCNC(=N)N)NC(=O)[C@@H](NC(=O)[C@H](CCCCN)NC(=O)[C@H](CCC(=O)O)NC(=O)[C@H](CCCNC(=N)N)NC(=O)CNC(=O)[C@H](CCC(=O)O)NC(=O)[C@H](CC(C)C)NC(C)=O)C(C)C)[C@@H](C)CC)[C@@H](C)O)C(N)=O)C(=O)O)C(=O)O)C(=O)O)C(=O)O [compound 167] (Ac-LEGREKVRAK(Ac)I[Aib][Aib]EG[Nle]STFS[αMeK]RAK(Ac)[AEEA][AEEA][AEEA][AEEA]K([γGlu-γGlu-γGlu-γGlu-Pentadecanoyl])-NH2) | 0.05 | 93
3 | CCCCCCCCCCCCCCC(=O)N[C@@H](CCC(=O)N[C@@H](CCC(=O)NCCCC[C@H](NC(=O)CC[C@H](NC(=O)CC[C@H](NC(=O)COCCOCCNC(=O)COCCOCCNC(=O)COCCOCCNC(=O)COCCOCCNC(=O)[C@H](CCCCNC(C)=O)NC(=O)[C@H](C)NC(=O)[C@H](CCCNC(=N)N)NC(=O)[C@](C)(CCCCN)NC(=O)[C@H](CO)NC(=O)[C@H](Cc1ccccc1)NC(=O)[C@@H](NC(=O)[C@H](CO)NC(=O)[C@H](CCCC)NC(=O)CNC(=O)[C@H](CCC(=O)O)NC(=O)C(C)(C)NC(=O)C(C)(C)NC(=O)[C@@H](NC(=O)[C@H](CCCCNC(C)=O)NC(=O)[C@H](C)NC(=O)[C@H](CCCNC(=N)N)NC(=O)[C@@H](NC(=O)[C@H](CCCCN)NC(=O)[C@H](CCC(=O)O)NC(=O)[C@H](CCCNC(=N)N)NC(=O)CNC(=O)[C@H](CCC(=O)O)NC(=O)[C@H](CC(C)C)NC(C)=O)C(C)C)[C@@H](C)CC)[C@@H](C)O)C(=O)O)C(=O)O)C(N)=O)C(=O)O)C(=O)O [compound 168] (Ac-LEGREKVRAK(Ac)I[Aib][Aib]EG[Nle]STFS[αMeK]RAK(Ac)[AEEA][AEEA][AEEA][AEEA][γGlu][γGlu]K([γGlu-γGlu-Pentadecanoyl])-NH2) | 0.06 | 91
4 | CCCCCCCCCCCCCCCCCCCC(=O)N[C@@H](CCC(=O)N[C@@H](CCC(=O)N[C@@H](CCC(=O)NCCOCCOCC(=O)NCCOCCOCC(=O)NCCOCCOCC(=O)NCCCC[C@H](NC(=O)[C@H](CCCCNC(C)=O)NC(=O)[C@H](CCCCN)NC(=O)[C@H](CCCNC(=N)N)NC(=O)C(C)(C)NC(=O)[C@H](CO)NC(=O)[C@H](Cc1c[nH]c2ccccc12)NC(=O)[C@@H](NC(=O)[C@H](CO)NC(=O)[C@H](CCCC)NC(=O)CNC(=O)[C@H](CCC(=O)O)NC(=O)C(C)(C)NC(=O)C(C)(C)NC(=O)[C@@H](NC(=O)[C@H](CCCCNC(C)=O)NC(=O)[C@H](C)NC(=O)[C@H](CCCNC(=N)N)NC(=O)[C@@H](NC(=O)[C@H](CCCCN)NC(=O)[C@H](CCC(=O)O)NC(=O)[C@H](CCCNC(=N)N)NC(=O)CNC(=O)[C@H](CCC(=O)O)NC(=O)[C@H](CC(C)C)NC(C)=O)C(C)C)[C@@H](C)CC)[C@@H](C)O)C(N)=O)C(=O)O)C(=O)O)C(=O)O [compound 171] (Ac-LEGREKVRAK(Ac)I[Aib][Aib]EG[Nle]STWS[Aib]RKK(Ac)K([AEEA-AEEA-AEEA-γGlu-γGlu-γGlu-Arachidoyl])-NH2) | 0.18 | 83
5 | CCCCCCCCCCCCCC(=O)N[C@@H](CCC(=O)N[C@@H](CCC(=O)N[C@@H](CCC(=O)N[C@@H](CCC(=O)NCCCC[C@H](NC(=O)COCCOCCNC(=O)COCCOCCNC(=O)COCCOCCNC(=O)COCCOCCNC(=O)[C@H](CCCCNC(C)=O)NC(=O)[C@H](C)NC(=O)[C@H](CCCNC(=N)N)NC(=O)[C@](C)(CCCCN)NC(=O)[C@H](CO)NC(=O)[C@H](Cc1ccccc1)NC(=O)[C@@H](NC(=O)[C@H](CO)NC(=O)[C@H](CCCC)NC(=O)CNC(=O)[C@H](CCC(=O)O)NC(=O)C(C)(C)NC(=O)C(C)(C)NC(=O)[C@@H](NC(=O)[C@H](CCCCNC(C)=O)NC(=O)[C@H](C)NC(=O)[C@H](CCCNC(=N)N)NC(=O)[C@@H](NC(=O)[C@H](CCCCN)NC(=O)[C@H](CCC(=O)O)NC(=O)[C@H](CCCNC(=N)N)NC(=O)CNC(=O)[C@H](CCC(=O)O)NC(=O)[C@H](CC(C)C)NC(C)=O)C(C)C)[C@@H](C)CC)[C@@H](C)O)C(N)=O)C(=O)O)C(=O)O)C(=O)O)C(=O)O [compound 172] (Ac-LEGREKVRAK(Ac)I[Aib][Aib]EG[Nle]STFS[αMeK]RAK(Ac)[AEEA][AEEA][AEEA][AEEA]K([γGlu-γGlu-γGlu-γGlu-Myristoyl])-NH2) | 0.56 | 95
6 | CCCCCCCCCCCCCCCCCCCCCC(=O)N[C@@H](CCC(=O)N[C@@H](CCC(=O)N[C@@H](CCC(=O)NCCOCCOCC(=O)NCCOCCOCC(=O)NCCOCCOCC(=O)NCCCC[C@H](NC(=O)[C@H](CCCCNC(C)=O)NC(=O)[C@H](CCCCN)NC(=O)[C@H](CCCNC(=N)N)NC(=O)C(C)(C)NC(=O)[C@H](CO)NC(=O)[C@H](Cc1c[nH]c2ccccc12)NC(=O)[C@@H](NC(=O)[C@H](CO)NC(=O)[C@H](CCCC)NC(=O)CNC(=O)[C@H](CCC(=O)O)NC(=O)C(C)(C)NC(=O)C(C)(C)NC(=O)[C@@H](NC(=O)[C@H](CCCCNC(C)=O)NC(=O)[C@H](C)NC(=O)[C@H](CCCNC(=N)N)NC(=O)[C@@H](NC(=O)[C@H](CCCCN)NC(=O)[C@H](CCC(=O)O)NC(=O)[C@H](CCCNC(=N)N)NC(=O)CNC(=O)[C@H](CCC(=O)O)NC(=O)[C@H](CC(C)C)NC(C)=O)C(C)C)[C@@H](C)CC)[C@@H](C)O)C(N)=O)C(=O)O)C(=O)O)C(=O)O [compound 173] (Ac-LEGREKVRAK(Ac)I[Aib][Aib]EG[Nle]STWS[Aib]RKK(Ac)K([AEEA-AEEA-AEEA-γGlu-γGlu-γGlu-Docosanoyl])-NH2) | 0.19 | 85
7 | CCCCCCCCCCCCCCCC(=O)N[C@@H](CCC(=O)N[C@@H](CCC(=O)N[C@@H](CCC(=O)NCCCC[C@H](NC(=O)COCC(=O)NCCCOCCOCCOCCCNC(=O)[C@H](CCCCNC(C)=O)NC(=O)[C@H](CCCCN)NC(=O)[C@H](CCCNC(=N)N)NC(=O)C(C)(C)NC(=O)[C@H](CO)NC(=O)[C@H](Cc1c[nH]c2ccccc12)NC(=O)[C@@H](NC(=O)[C@H](CO)NC(=O)[C@H](CCCC)NC(=O)CNC(=O)[C@H](CCC(=O)O)NC(=O)C(C)(C)NC(=O)C(C)(C)NC(=O)[C@@H](NC(=O)[C@H](CCCCNC(C)=O)NC(=O)[C@H](C)NC(=O)[C@H](CCCNC(=N)N)NC(=O)[C@@H](NC(=O)[C@H](CCCCN)NC(=O)[C@H](CCC(=O)O)NC(=O)[C@H](CCCNC(=N)N)NC(=O)CNC(=O)[C@H](CCC(=O)O)NC(=O)[C@H](CC(C)C)NC(C)=O)C(C)C)[C@@H](C)CC)[C@@H](C)O)C(N)=O)C(=O)O)C(=O)O)C(=O)O [compound 175] (Ac-LEGREKVRAK(Ac)I[Aib][Aib]EG[Nle]STWS[Aib]RKK(Ac)-X13) |  | 87
